Columns and labels:
[1] = target: Protein farnesyltransferase (Bos taurus, UniProt P29702+P49355); assay: Inhibition of Bovine farnesyl transferase; type: protein-complex assay
[2] = target: Geranylgeranyl transferase type I (Bos taurus, UniProt P29702+Q5EAD5); assay: Inhibition of Bovine geranylgeranyl transferase; type: protein-complex assay
[3] = target: T1, Protein farnesyltransferase (Mus musculus, UniProt Q61239+Q8K2I1); assay: Inhibition of H-ras processing in transformed NIH3T3 cells
[4] = target: T1, Protein farnesyltransferase; assay: Effective concentration against H-ras processing in transformed NIH3T3 cells; type: functional, cell-based
[5] = target: Protein farnesyltransferase (Homo sapiens, UniProt P49354+P49356); assay: Inhibition of Farnesyl transferase inhibitor (ABT-839); type: protein-complex assay
[6] = target: Protein farnesyltransferase (Bos taurus) (UniProt P29702+P49355); assay: Percentage inhibition of Bovine farnesyl transferase at 100 nM; type: protein-complex assay
Bos taurus = species: Bos taurus; assay: Selectivity for Bovine farnesyl transferase over geranylgeranyl transferase
[7] = target: T1, Protein farnesyltransferase; assay: Effective concentration against H-ras processing in NIH 3T3 cells; type: functional, cell-based, NIH3T3

SMILES	IC50 [1] [nM]	IC50 [2] [nM]	EC50 [4] [nM]	further results
Cn1cncc1C(OCc1ccc(C#N)cc1)c1ccc(C#N)c(-c2ccccc2CO)c1 (stereo not drawn)	5.5	480		inhibition [3]: 89%
Cc1ccccc1-c1cc(C(OCc2ccc([N+](=O)[O-])cc2)c2cncn2C)ccc1C#N (stereo not drawn)	7.5			
Cn1cncc1C(OCc1ccc(C#N)cc1)c1ccc(C#N)c(-c2ccccc2C=O)c1 (stereo not drawn)	1.9		110	
Cc1ccccc1-c1cc(C(OCc2cccc(Cl)c2)c2cncn2C)ccc1C#N (stereo not drawn)	19			
Cc1ccccc1-c1cc(C(OCc2ccc(F)cc2)c2cncn2C)ccc1C#N (stereo not drawn)	32			
Cn1cncc1C(OCc1ccc(C#N)cc1)c1ccc(C#N)c(-c2cccc3ccccc23)c1 (stereo not drawn)			110	
Cc1ccc(COC(c2ccc(C#N)c(-c3ccccc3C)c2)c2cncn2C)cc1 (stereo not drawn)	54			
Cn1cncc1C(OCc1ccc(C#N)cc1)c1ccc(C#N)c(-c2cccc(Cl)c2Cl)c1 (stereo not drawn)	1.5	85	240	
Cc1ccccc1-c1cc(C(OCc2csc(-c3ccc(Cl)cc3)n2)c2cncn2C)ccc1C#N (stereo not drawn)	29			
Cc1ccccc1-c1cc(C(OCc2cccc3ccccc23)c2cncn2C)ccc1C#N (stereo not drawn)	17			
Cc1ccccc1-c1cc(C(OCc2ccccc2[N+](=O)[O-])c2cncn2C)ccc1C#N (stereo not drawn)	33			
Cc1ccccc1-c1cc(C(OCc2c(Cl)cccc2Cl)c2cncn2C)ccc1C#N (stereo not drawn)	81			
Cn1cncc1C(OCc1ccc(C#N)cc1)c1ccc(C#N)c(-c2cc3ccccc3s2)c1 (stereo not drawn)	160			
Cc1ccccc1-c1cc(C(OCc2noc(-c3ccccc3)n2)c2cncn2C)ccc1C#N (stereo not drawn)				inhibition [6]: 56%
COC(=O)c1ccc(COC(c2ccc(C#N)c(-c3ccccc3C)c2)c2cncn2C)cc1 (stereo not drawn)	6.1			
Cc1ccccc1-c1cc(C(OCc2cc(Cl)cc(Cl)c2)c2cncn2C)ccc1C#N (stereo not drawn)	19			
COc1ccc(COC(c2ccc(C#N)c(-c3ccccc3C)c2)c2cncn2C)cc1 (stereo not drawn)	59			
Cc1ccccc1-c1cc(C(OCc2ccc(I)cc2)c2cncn2C)ccc1C#N (stereo not drawn)	13			
Cn1cncc1C(OCc1ccc(C#N)cc1)c1ccc(C#N)c(-c2ccc(Cl)cc2Cl)c1 (stereo not drawn)	47		> 1000	
Cc1ccccc1-c1cc(C(OCc2ccc(S(C)(=O)=O)cc2)c2cncn2C)ccc1C#N (stereo not drawn)	38			
Cc1ccccc1-c1cc(C(OCc2cc(Cl)nc(Cl)c2)c2cncn2C)ccc1C#N (stereo not drawn)	13			

SMILES	IC50 [1] [nM]	IC50 [2] [nM]	EC50 [4] [nM]	further results
Cc1ccccc1-c1cc(C(OCc2ccc(Cl)cc2)c2cncn2C)ccc1C#N (stereo not drawn)	11			
Cc1ccccc1-c1cc(C(OCc2cccc(F)c2)c2cncn2C)ccc1C#N (stereo not drawn)	38			
COC(=O)c1ccc(COC(c2ccc(C#N)c(-c3ccccc3C)c2)c2cncn2C)o1 (stereo not drawn)				inhibition [6]: 50%
Cc1cccc(COC(c2ccc(C#N)c(-c3ccccc3C)c2)c2cncn2C)c1 (stereo not drawn)	61			
Cc1ccccc1-c1cc(C(OCc2cccc(I)c2)c2cncn2C)ccc1C#N (stereo not drawn)	20			
Cc1ccccc1-c1cc(C(OCc2ccc(Br)cc2)c2cncn2C)ccc1C#N (stereo not drawn)	12			
Cc1ccccc1-c1cc(C(OCc2ccccc2Br)c2cncn2C)ccc1C#N (stereo not drawn)				inhibition [1]: 65%
Cc1ccccc1-c1cc(C(OCc2ccc3ccccc3c2)c2cncn2C)ccc1C#N (stereo not drawn)				inhibition [6]: 76%
COC(=O)c1cccc(COC(c2ccc(C#N)c(-c3ccccc3C)c2)c2cncn2C)c1 (stereo not drawn)	61			
Cc1ccccc1-c1cc(C(OCc2cnc(Cl)c(Cl)c2)c2cncn2C)ccc1C#N (stereo not drawn)	15			
Cc1ccccc1-c1cc(C(OCc2ccccc2)c2cncn2C)ccc1C#N (stereo not drawn)	84	1300		Selectivity (Bos taurus): 16; EC50 [7]: 2700 nM
CCCCN(CCC1CCCCC1)Cc1ccc(C(=O)N[C@@H](CCSC)C(=O)O)c(-c2ccccc2C)c1				Selectivity (Bos taurus): 75000
Cc1ccccc1-c1cc(C(OCc2ccccc2Cl)c2cncn2C)ccc1C#N (stereo not drawn)	48			
Cc1ccccc1-c1cc(C(OCc2cccc(Br)c2)c2cncn2C)ccc1C#N (stereo not drawn)	13			
Cc1cccc(-c2cc(C(OCc3ccc(C#N)cc3)c3cncn3C)ccc2C#N)c1C (stereo not drawn)	2.1	130	> 1000	
Cc1ccccc1-c1cc(C(OCc2ccc(C(C)C)cc2)c2cncn2C)ccc1C#N (stereo not drawn)	51			
Cc1ccccc1-c1cc(C(OCc2ccc(-c3ccccc3)cc2)c2cncn2C)ccc1C#N (stereo not drawn)	13			
Cc1ccccc1COC(c1ccc(C#N)c(-c2ccccc2C)c1)c1cncn1C (stereo not drawn)	54			
Cc1ccccc1-c1cc(C(OCc2ccccc2F)c2cncn2C)ccc1C#N (stereo not drawn)	70			
Cc1ccccc1-c1cc(C(OCc2ccc(C(C)(C)C)cc2)c2cncn2C)ccc1C#N (stereo not drawn)	87			

Second part, led by results:

IC50 [1] [nM]	IC50 [2] [nM]	EC50 [4] [nM]	SMILES	further results
16			Cc1ccccc1-c1cc(C(OCc2ccc(OC(F)(F)F)cc2)c2cncn2C)ccc1C#N (stereo not drawn)	
7.5	2400	285	Cn1cncc1C(OCc1ccc(C#N)c(NCC2CCCO2)n1)c1ccc(C#N)c(-c2ccccc2C(F)(F)F)c1 (stereo not drawn)	IC50 [5]: 1.1 nM
3.6	680	210	Cn1cncc1C(OCc1ccc(C#N)c(N2CCC[C@@H]2C(=O)O)n1)c1ccc(C#N)c(-c2ccccc2C(F)(F)F)c1 (stereo partly drawn)	
	310	85	Cn1cncc1C(OCc1ccc(C#N)cc1)c1ccc(C#N)c(-c2ccccc2C(F)(F)F)c1 (stereo not drawn)	
8.1			Cc1ccccc1-c1cc(C(OCc2cccc(C(F)(F)F)c2)c2cncn2C)ccc1C#N (stereo not drawn)	
27			Cc1ccccc1-c1cc(C(OCc2ccc(Cl)c(Cl)c2)c2cncn2C)ccc1C#N (stereo not drawn)	
7.7	2200	201	Cn1cncc1C(OCc1ccc(C#N)c(NCC2CCOC2)n1)c1ccc(C#N)c(-c2ccccc2C(F)(F)F)c1 (stereo not drawn)	
1.2	2600	53	CN1CCN(c2nc(COC(c3ccc(C#N)c(-c4ccccc4C(F)(F)F)c3)c3cncn3C)ccc2C#N)CC1 (stereo not drawn)	
2.7	1500	90	Cn1cncc1C(OCc1ccc(C#N)cn1)c1ccc(C#N)c(-c2ccccc2C(F)(F)F)c1 (stereo not drawn)	
4.1	120	100	Cn1cncc1C(OCc1ccc(F)c(C(F)(F)F)c1)c1ccc(C#N)c(-c2ccccc2C(F)(F)F)c1 (stereo not drawn)	
4			Cc1ccccc1-c1cc(C(OCc2ccc(C#N)cc2)c2cncn2C)ccc1C#N (stereo in doubt; 4q)	
1.3	1400	13	Cn1cncc1C(OCc1ccc(C#N)c(N2CCCC(O)C2)n1)c1ccc(C#N)c(-c2ccccc2C(F)(F)F)c1 (stereo not drawn)	
2.6	1800	130	CC(=O)N1CCN(c2nc(COC(c3ccc(C#N)c(-c4ccccc4C(F)(F)F)c3)c3cncn3C)ccc2C#N)CC1 (stereo not drawn)	
1.8	1400	11	Cn1cncc1C(OCc1ccc(C#N)c(N2CCC(CO)CC2)n1)c1ccc(C#N)c(-c2ccccc2C(F)(F)F)c1 (stereo not drawn)	
1.3	1200	89	Cn1cncc1C(OCc1ccc(C#N)c(N2CCOCC2)n1)c1ccc(C#N)c(-c2ccccc2C(F)(F)F)c1 (stereo not drawn)	
4.8	180	420	Cc1ccccc1-c1cc(C(OCc2ccc(C#N)cc2)c2cncn2C)ccc1C#N (stereo in doubt; 10a)	
2	920	170	Cn1cncc1C(OCc1ccc(C#N)c(N2CCC[C@@H]2CO)n1)c1ccc(C#N)c(-c2ccccc2C(F)(F)F)c1 (stereo partly drawn)	
9	3900		COC(=O)c1ccc(COC(c2ccc(C#N)c(-c3ccccc3C(F)(F)F)c2)c2cncn2C)nc1 (stereo not drawn)	inhibition [3]: 83%
9.1	2300	> 1000	Cn1cncc1C(OCc1ccc(C#N)c(NCCc2ccccc2)n1)c1ccc(C#N)c(-c2ccccc2C(F)(F)F)c1 (stereo not drawn)	
1.7	72		Cn1cncc1C(OCc1ccc(Cl)c(Cl)c1)c1ccc(C#N)c(-c2ccccc2C(F)(F)F)c1 (stereo not drawn)	
10	750		Cn1cncc1C(OCc1ccc(C#N)c(NCc2cccc(F)c2)n1)c1ccc(C#N)c(-c2ccccc2C(F)(F)F)c1 (stereo not drawn)	
14		> 1000	Cn1cncc1C(OCc1ccc(C#N)cc1)c1ccc(C#N)c(-c2ccccc2C(=O)O)c1 (stereo not drawn)	
3.5	970	120	Cn1cncc1C(OCc1ccc(C#N)c(N2CCC(O)C2)n1)c1ccc(C#N)c(-c2ccccc2C(F)(F)F)c1 (stereo not drawn)	
1.3	2000	30	Cn1cncc1C(OCc1ccc(C#N)c(N2CCN(CCO)CC2)n1)c1ccc(C#N)c(-c2ccccc2C(F)(F)F)c1 (stereo not drawn)	
59			Cc1ccccc1-c1cc(C(OCc2cccc3cccnc23)c2cncn2C)ccc1C#N (stereo not drawn)	
12			Cc1ccccc1-c1cc(C(OCc2ccc(C(F)(F)F)cc2)c2cncn2C)ccc1C#N (stereo not drawn)	
62			Cc1ccccc1-c1cc(C(OCc2ccccc2C#N)c2cncn2C)ccc1C#N (stereo not drawn)	
8.3			Cc1ccccc1-c1cc(C(OCc2cccc(OC(F)(F)F)c2)c2cncn2C)ccc1C#N (stereo not drawn)	
6.1	160	> 1000	Cn1cncc1C(OCc1ccc(C(F)(F)F)c(F)c1)c1ccc(C#N)c(-c2ccccc2C(F)(F)F)c1 (stereo not drawn)	
1.7	1600	330	CC(=O)NC1CCN(c2nc(COC(c3ccc(C#N)c(-c4ccccc4C(F)(F)F)c3)c3cncn3C)ccc2C#N)C1 (stereo not drawn)	

— ChEMBL document CHEMBL1145145, “Design and synthesis of o-trifluoromethylbiphenyl substituted 2-amino-nicotinonitriles as inhibitors of farnesyltransferase” (Bioorg Med Chem Lett, 2005)
